Legend:
CYP3A4 = CYP3A4 (Homo sapiens (Human), UniProt P08684); assay: Inhibition of site of metabolism of midazolam in human liver microsome CYP3A4; type: in vitro ADME; conditions: 30 min
Experimental: • 1. Phosphate buffer (20×PBS, purchased from Sangon); • 2. NADPH (ACROS, A2646-71-1); • 3. Human liver microsome (Corning Gentest, Cat No. 452161, Lot No. 9050002, Donor, 36); • 4. ABI QTrap 4000 LC-MS System (AB Sciex); • 5. ZORBAX Extend-C18, 3×50 mm, 3.5 m (Agilent, USA); • 6. CYP probe substrate (midazolam, TRC, M343000/3 μM) and positive control inhibitor (ketoconazole, SIGMA, Cat No. K1003-100MG).
A 100 mM PBS buffer was prepared. A 0.25 mg/mL microsome solution, a 7.5 mM MgCl2 and a 5 mM NADPH solution were prepared using the buffer. A 30 mM stock solution was diluted with DMSO to obtain 30 mM, 10 mM, 3 mM, 1 mM, 0.3 mM, 0.03 mM, 0.003 mM and 0 mM serial solutions I, which were further diluted 200-fold with phosphate buffer (PBS) to obtain serial test solutions II (150, 50, 15, 5, 1.5, 0.15, 0.015 and 0 μM). A midazolam working solution was diluted with PBS to 15 μM. 40 μL of a 0.25 mg/mL microsome solution prepared in 7.5 mM MgCl2 and 20 μL of each of the […] midazolam working solution and the compound working solutions (150, 50, 15, 5, 1.5, 0.15, 0.015 and 0 μM) were measured out and well mixed. Ketoconazole at the same concentration was used in place of the compound as a positive control group. […]
The IC50 value of the drug for the site of metabolism of midazolam in CYP3A4 was calculated by Graphpad Prism and is shown in Table 5.

[1] = Influencing factor stability study
[2] = Hygroscopicity study (DVS); type: physicochemical; conditions: 25° C.
Experimental: DVS refers to dynamic vapor sorption: The measurement was conducted on SMS DVS Advantage; at 25° C., the humidity was changed as follows: 50%-95%-0%-95%-50%, in steps of 10% (5% for the last step) (specific humidity ranges are shown in corresponding patterns, and those listed here were used in most cases); the criterion was dm/dt≤0.002%.
The measurement was conducted with a Surface Measurement Systems intrinsic at 25° C., starting from 50% humidity in humidity range of 0%-95%, in steps of 10%; the criterion was dM/dT≤0.002% and TMAX of 360 min in two cycles.

ERα = ERα (Homo sapiens (Human), UniProt P03372); assay: Degradation of ERα in MCF-7 cells (ELISA); type: cell-based; conditions: 16 to 18 h, read-out: EC50, degradation of ERα
Sequence of ERα (P03372 whole entry): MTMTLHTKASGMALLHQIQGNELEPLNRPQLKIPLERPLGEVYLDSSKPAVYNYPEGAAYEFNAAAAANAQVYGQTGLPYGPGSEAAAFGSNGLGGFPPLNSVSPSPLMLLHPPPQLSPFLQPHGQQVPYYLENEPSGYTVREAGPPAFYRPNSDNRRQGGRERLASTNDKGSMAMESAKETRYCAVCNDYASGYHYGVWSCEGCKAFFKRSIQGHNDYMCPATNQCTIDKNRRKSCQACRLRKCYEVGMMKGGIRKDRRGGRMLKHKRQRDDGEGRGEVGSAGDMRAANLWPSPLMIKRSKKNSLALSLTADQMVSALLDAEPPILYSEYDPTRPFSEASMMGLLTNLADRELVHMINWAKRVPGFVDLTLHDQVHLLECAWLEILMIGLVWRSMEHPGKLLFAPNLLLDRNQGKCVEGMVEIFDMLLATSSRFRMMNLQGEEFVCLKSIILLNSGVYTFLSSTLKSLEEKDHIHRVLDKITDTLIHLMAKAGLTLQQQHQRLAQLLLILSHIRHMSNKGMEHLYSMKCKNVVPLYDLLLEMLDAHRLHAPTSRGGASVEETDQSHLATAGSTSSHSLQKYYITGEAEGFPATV
Experimental: ERα-positive breast cancer cell line MCF-7 cells were cultured in a DMEM/F12 medium (HyClone, SH30023.01) containing 10% fetal bovine serum (Corning, 35-010-CV). […] The 48-well plate was placed in the incubator for 16 to 18 h. A 96-well plate was coated with the capture antibody from the human ERα/NR3A1 total protein assay kit (R&D, DYC5715-5). […] The plate was placed in an incubator at 26° C. overnight. On day 3, the antibody-coated 96-well plate was washed once with PBS, and 200 μL of PBS containing 1% BSA was added to each well. The plate was incubated in an incubator at 37° C. for 1.5 h to be blocked. The cell culture medium supernatant was discarded. […] A biotinylated assay antibody was diluted to 0.4 μg/mL with PBS containing 1% BSA, and then 100 μL of the assay antibody was added to each well. The plate was incubated in an incubator at 37° C. for 1 h. The plate was then washed five more times, and 100 μL of avidin-HRP diluted 200-fold with PBS containing 1% BSA was added to each well. The plate was incubated at 37° C. for 30 min.

Sequence of CYP3A4 (P08684 whole entry): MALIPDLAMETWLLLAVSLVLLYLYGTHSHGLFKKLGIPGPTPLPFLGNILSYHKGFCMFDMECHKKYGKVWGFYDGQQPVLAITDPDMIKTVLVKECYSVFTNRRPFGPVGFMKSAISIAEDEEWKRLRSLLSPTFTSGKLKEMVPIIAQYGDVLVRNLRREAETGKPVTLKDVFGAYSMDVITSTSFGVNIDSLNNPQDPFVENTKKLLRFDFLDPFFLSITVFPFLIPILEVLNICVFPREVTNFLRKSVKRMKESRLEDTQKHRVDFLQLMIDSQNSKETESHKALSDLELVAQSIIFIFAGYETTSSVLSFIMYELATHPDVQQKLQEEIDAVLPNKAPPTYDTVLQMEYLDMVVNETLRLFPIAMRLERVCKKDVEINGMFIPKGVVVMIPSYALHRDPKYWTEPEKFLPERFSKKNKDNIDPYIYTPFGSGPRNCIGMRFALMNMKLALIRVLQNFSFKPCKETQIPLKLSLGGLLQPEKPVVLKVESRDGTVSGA

[2H]C1([2H])Oc2cc3c(cc2O1)[C@@H](c1ccc(NC2CN(CCCF)C2)cn1)N(CC(F)(F)CO)[C@H](C)C3 [Compound 1, 2,2-Difluoro-3-((5S,7R)-5-(5-((1-(3-fluoropropyl)azetidin-3-yl)amino)pyridin-2-yl)-7-methyl-7,8-dihydro-[1,3]dioxolo[4,5-g]isoquinolin-6(5H)-yl-2,2-d2)propan-1-ol]
IC50 (CYP3A4): 15.4 µM
Crystal form ([1]; 40° C., 1 month): Amorphous form
Purity (%) ([1]; 40° C., 1 month): 95.4%
Crystal form ([1]; 40° C., 5 days): Amorphous form
Purity (%) ([1]; 40° C., 5 days): 96.7%
Crystal form ([1]; 40° C., 10 days): Amorphous form
Purity (%) ([1]; 40° C., 10 days): 96.5%
Crystal form ([1]; 60° C., 1 month): Amorphous form
Purity (%) ([1]; 60° C., 1 month): 87.6%
Crystal form ([1]; 60° C., 5 days): Amorphous form
Purity (%) ([1]; 60° C., 5 days): 95.7%
Crystal form ([1]; 60° C., 10 days): Amorphous form
Purity (%) ([1]; 60° C., 10 days): 94.2%
behaviour under the high-humidity conditions (conclusion) ([1]; 75% RH and 92.5% RH, 30 days): deliquesced
Crystal form ([1]; 75% RH, 1 month): Deliquescence
Purity (%) ([1]; 75% RH, 1 month): 96.9%
Crystal form ([1]; 75% RH, 5 days): Amorphous form
Purity (%) ([1]; 75% RH, 5 days): 97.0%
Crystal form ([1]; 75% RH, 10 days): Amorphous form
Purity (%) ([1]; 75% RH, 10 days): 97.0%
Crystal form ([1]; 92.5% RH, 1 month): Deliquescence
Purity (%) ([1]; 92.5% RH, 1 month): 97.0%
Crystal form ([1]; 92.5% RH, 5 days): Amorphous form
Purity (%) ([1]; 92.5% RH, 5 days): 96.9%
Crystal form ([1]; 92.5% RH, 10 days): Amorphous form
Purity (%) ([1]; 92.5% RH, 10 days): 97.0%
Crystal form ([1]; 4500 Lux, 1 month): Amorphous form
Purity (%) ([1]; 4500 Lux, 1 month): 71.7%
Crystal form ([1]; 4500 Lux, 5 days): Amorphous form
Purity (%) ([1]; 4500 Lux, 5 days): 94.0%
Crystal form ([1]; 4500 Lux, 10 days): Amorphous form
Purity (%) ([1]; 4500 Lux, 10 days): 89.9%
Crystal form ([1]; Initial, 0 days): Amorphous form
Purity (%) ([1]; Initial, 0 days): 97.1%
Hygroscopicity grade ([2]; 0% RH-80.0% RH): hygroscopic
Crystal form after DVS [2]: Did not change
Hygroscopicity 0% RH-80.0% RH ([2]; DVS): 4.6%
Hygroscopicity 0.0% RH-95.0% RH ([2]; DVS): 6.7%
DC50 (ERα): 0.00038 µM

Reference: patent US20240374581A1, “SALT TYPES OF TRICYCLIC TETRAHYDRO ISOQUINOLINE DERIVATIVE” (JIANGSU HENGRUI PHARMACEUTICALS CO., LTD., priority 2021, published 2024)
